This is an account of results in ChEMBL document CHEMBL1201862, “PubChem BioAssay data set” (2004).

Experiment in all cases: NCI-60 cell line screen, 48 h
Assay [1] relates to SNB-75.
Assay [2] concerns SK-MEL-5.
The test system of assay [3] is RPMI-8226.
In assay [4] the test system is M14.
Assay [5] has as its system HL-60.
Assay [6] deals with SK-MEL-28.
For assay [7], the system named is SNB-19.
Assay [8] concerns HCC 2998.
In assay [9] the test system is SW-620.
For assay [10], the system named is CAKI-1.
Assay [11] concerns TK-10.
For assay [12], the system named is SF-268.
Assay [13] deals with SK-MEL-2.
Assay [14] deals with LOX IMVI.
Assay [15] concerns U-251.
Assay [16] concerns SR.

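How tested: cells in 96-well plates exposed to compound for 48 hours at five concentrations. GI50: concentration for 50% inhibition of growth.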 Calls of active or inactive are those of the source. Cut-off read from the data, not from the text of the source: active = GI50 up to about 1.1 µM and inactive = higher.

Take `CCN(CC)CC1c2ccccc2C(CNc2ccccc2)N1C` (configuration not stated): the GI50 was 49.3 µM (inactive) in assay [1]; > 100 µM (inactive) in assay [2]; 80.7 µM (inactive) in assay [3]; > 100 µM (inactive) in assay [4]; 29.6 µM (inactive) in assay [5]; > 100 µM (inactive) in assay [6]. For the same compound, the GI50 in [7] was > 100 µM (inactive); in [8], > 100 µM (inactive); in assay [9], > 100 µM (inactive); in assay [10] it was 92 µM (inactive); in [11], > 100 µM (inactive); in [12], > 100 µM (inactive). For the same compound, the GI50 in assay [13] and in assay [14] was > 100 µM (inactive) each time.

For `COc1cc([C@@H]2c3cc4c(cc3[C@@H](NC(=O)c3ccccc3)C3COC(=O)[C@@H]32)OCO4)cc(OC)c1O` (some centres not stated), the GI50 in [1] was 5.43 µM (inactive); in assay [2], 2.31 µM (inactive); in assay [3], 2.61 µM (inactive); in [15], 1.32 µM (inactive); in assay [4], 5.57 µM (inactive); in [5] it was 1.87 µM (inactive). The GI50 in assay [6] is 13.8 µM (inactive); in [7], 19.4 µM (inactive); in assay [8], 14 µM (inactive); in assay [9], 10.3 µM (inactive); in assay [10], 11.3 µM (inactive); in [11], 32.4 µM (inactive). Also, the GI50 in [12] was 4.55 µM (inactive); in [13], 20.3 µM (inactive); in assay [14], 2.52 µM (inactive).

In the case of `O=C(O)/C=C\C(=O)Nc1ccc(S(=O)(=O)c2ccc(NC(=O)/C=C\C(=O)O)cc2)cc1`, the GI50 in assay [1], in assay [2], in assay [3], in assay [15], in assay [4] and in [5] was > 100 µM (inactive) each time. For the same compound, the GI50 in assay [6], in assay [7], in assay [9], in assay [16], in [10] and in [11] was > 100 µM (inactive) each time. For the same compound, the GI50 in assay [12], in assay [13] and in assay [14] was > 100 µM (inactive) each time.

For `NNC(=O)C(=O)N/N=C1\CCCC1C(=O)CCC(=O)Nc1cccc(Cl)c1` (configuration not stated), the GI50 in assay [1], in assay [2], in assay [3], in [15], in [4] and in assay [5] was > 100 µM (inactive) in each case. Besides, the GI50 in assay [6], in assay [7], in assay [8], in [9], in [11] and in assay [12] was > 100 µM (inactive) each time. Besides, the GI50 in assay [13] and in [14] was > 100 µM (inactive) in each case.

As to `CCN(CC)CCOC(c1ccccc1)c1ccccc1.CCOC(=O)Nc1ccc(S(=O)(=O)NCCCl)cc1.CCOC(=O)Nc1ccc(S(=O)(=O)NCCCl)cc1.Nc1ccc(C(=O)O)c(O)c1`, the GI50 in [1], in [2], in assay [15], in [4], in assay [5] and in [6] was > 100 µM (inactive) throughout. The GI50 in assay [7], in assay [8], in [9], in assay [10], in assay [11] and in [12] was > 100 µM (inactive) each time. In addition, the GI50 in assay [13] and in assay [14] was > 100 µM (inactive) throughout.

For the compound `O=C1C=CC2(C=C1)CCNC1=C2C(=O)c2ccccc2C1=O`, the GI50 is 30.8 µM (inactive) in assay [1]; 56.9 µM (inactive) in assay [2]; > 100 µM (inactive) in [3]; > 100 µM (inactive) in assay [15]; > 100 µM (inactive) in [4]; > 100 µM (inactive) in [5]. The GI50 in assay [6], in [8], in assay [9], in assay [11], in assay [12] and in assay [13] was > 100 µM (inactive) in each case. The GI50 in [14] was > 100 µM (inactive).

For the compound `N#CC(NNC(=O)c1ccccc1O)c1cccc(O)c1` (configuration not stated), the GI50 in assay [1] was 1.7 µM (inactive); in assay [2], 18.2 µM (inactive); in [3] it was > 100 µM (inactive); in assay [15], 2.99 µM (inactive); in assay [4], 6.35 µM (inactive); in [5], 4.74 µM (inactive). Also, the GI50 was > 100 µM (inactive) in [6]; 30.1 µM (inactive) in assay [9]; > 100 µM (inactive) in [16]; 5.43 µM (inactive) in [10]; > 100 µM (inactive) in [11]; 0.986 µM (active) in assay [12]. For the same compound, the GI50 in assay [13] was 5.7 µM (inactive); in [14], 4.94 µM (inactive).

For `C/C(=N\[N+](C)(C)C)C(c1ccccc1)C1(c2ccccc2)C(c2ccccc2)=C1c1ccccc1` (configuration not stated), the GI50 was > 100 µM (inactive) in assay [2]; > 100 µM (inactive) in assay [3]; 66.1 µM (inactive) in [15]; > 100 µM (inactive) in assay [4]; > 100 µM (inactive) in assay [5]; > 100 µM (inactive) in assay [7]. Besides, the GI50 is > 100 µM (inactive) in [8]; > 100 µM (inactive) in [9]; > 100 µM (inactive) in assay [10]; 90.2 µM (inactive) in [11]; > 100 µM (inactive) in [13]; > 100 µM (inactive) in assay [14].

In the case of `c1ccc2c3c([nH]c2c1)[C@H]1C2CCCCN2CN1CC3` (some centres not stated), the GI50 in [1] is 27.1 µM (inactive); in [2], > 100 µM (inactive); in [3] it was > 100 µM (inactive); in assay [15], > 100 µM (inactive); in [4], > 100 µM (inactive); in [5] it was 47.2 µM (inactive). Besides, the GI50 in assay [6], in [7], in [8], in [9], in assay [10] and in [11] was > 100 µM (inactive) in each case. For the same compound, the GI50 in [12] was 51.6 µM (inactive); in [13] it was > 100 µM (inactive).

For the compound `CC1=NN(C(=O)c2ccc(Cl)cc2)C(=O)/C1=C/c1cccc(O)c1`, the GI50 in assay [2], in [3], in [15], in assay [4], in [5] and in [6] was > 100 µM (inactive) in each case. The GI50 in assay [7], in assay [8], in assay [9], in assay [10], in assay [11] and in [12] was > 100 µM (inactive) throughout. In addition, the GI50 in assay [13] and in assay [14] was > 100 µM (inactive) throughout.

As for `COCN1C(=O)C2CC(/C=C/C(N)=O)=CN2C(=O)c2ccccc21` (configuration not stated), the GI50 in assay [1], in assay [2], in [3], in assay [15], in [4] and in assay [5] was > 100 µM (inactive) throughout. In addition, the GI50 in assay [6], in [7], in assay [8], in assay [9], in assay [11] and in [12] was > 100 µM (inactive) each time. Besides, the GI50 in assay [14] is > 100 µM (inactive).

As for `COc1cc(CC2C(=O)OCC2[C@@H](OC(C)=O)c2ccc3c(c2)OCO3)c(Br)c(OC)c1OC` (some centres not stated), the GI50 was 28.5 µM (inactive) in assay [1]; 30.9 µM (inactive) in assay [2]; 50.9 µM (inactive) in assay [4]; 35.6 µM (inactive) in assay [5]; 73.3 µM (inactive) in assay [6]; > 100 µM (inactive) in assay [7]. Further, the GI50 is 98.4 µM (inactive) in [8]; 58.3 µM (inactive) in [9]; 29.4 µM (inactive) in assay [16]; > 100 µM (inactive) in assay [10]; > 100 µM (inactive) in [11]; > 100 µM (inactive) in assay [12]. Moreover, the GI50 in [13] is 61.4 µM (inactive); in assay [14], > 100 µM (inactive).

For `COc1ccc(-c2cc(C(=O)Nc3ccc(C)c(C)c3)nc(NC#N)n2)cc1`, the GI50 in assay [1], in [2], in assay [3], in assay [15], in assay [4] and in assay [6] was > 100 µM (inactive) in each case. For the same compound, the GI50 in assay [7], in assay [9], in assay [10], in assay [11], in assay [12] and in assay [13] was > 100 µM (inactive) throughout. Also, the GI50 in assay [14] was > 100 µM (inactive).

As to `Cn1cc(NC(=O)c2cc(NC(=O)CCCCCCC(=O)Nc3cc(C(=O)Nc4cc(C(=O)NCCC(=N)N)n(C)c4)n(C)c3)cn2C)cc1C(=O)NCCC(=N)N`, the GI50 in assay [1] is 10.1 µM (inactive); in assay [2] it was 1.92 µM (inactive); in assay [15] it was 17.3 µM (inactive); in [4] it was 16 µM (inactive); in [5], 2.84 µM (inactive); in [6] it was 4.22 µM (inactive). Further, the GI50 in [7] is 29.2 µM (inactive); in [8], 10.7 µM (inactive); in assay [9] it was 29.7 µM (inactive); in [10], 11 µM (inactive); in [11], 11.6 µM (inactive); in [12] it was 18.7 µM (inactive). Further, the GI50 in assay [14] is 5.75 µM (inactive).
